Results from patent US20140271734A1, “BILE ACID RECYCLING INHIBITORS FOR TREATMENT OF BARRETT'S ESOPHAGUS AND GASTROESOPHAGEAL REFLUX DISEASE” (LUMENA PHARMACEUTICALS, INC., priority 2013, published 2014).
Marks after values point to notes of the source that are not given here.

Experiments:
[1] = tested on: serum total bile acid (SBA); experiment: Time to onset of activity of LUM001 on postprandial serum bile acids in dogs; type: in vivo, beagle dogs; settings: for Serum bile acids, mean: fed at 0 min
Description: LUM001 was dissolved in water at concentrations that required the administration of 0.2 ml/kg of solution. Solutions were placed into gelatin capsules, Torpac Inc., size 13 Batch 594, East Hanover N.J., and administered orally.
Male beagle dogs were obtained from Covance Research Products, Cumberland Va. or Marshall Farms USA, Inc., North Rose N.Y. A total of 20 dogs, 1 to 5 years old, 6.8 to 15.6 kg body weight, were used in these experiments. The dogs were conditioned to a 12 hour light/dark cycle and maintained on a feeding restriction of 1 hour per day access to food (Richman Standard Certified Canine Diet #5007, PMI Nutrition, Inc., St. Louis Mo.) from 7 to 8 AM. They were trained to eat a special meal promptly within 20 minutes when presented (1 can. 397 g, Evanger's 100% Beef for Dogs, Evanger's Dog and Cat Food Co., Inc., Wheeling Ill., mixed with 50 g of sharp cheddar cheese.).
SBA was measured by an enzymatic assay. SBA values are expressed as μg of total bile acids/ml of serum.
To estimate the details of this plateau, 6 dogs were given a test meal and blood samples for SBA measurement were collected at −30, 0, 30, 60, 65, 70, 80, 90, 120, 180, 240, 360, 480, 720, 1410 and 1440 minutes from the time of feeding. Any remaining food was removed 20 min after it was first presented to the dogs. To establish a method for extending the elevated plateau of SBA, 6 dogs were given the meal at 0 hr and an additional ½ size meal again 4 hr after their first meal. Blood samples were taken at 0, 1, 2, 3, 4, 4.5, 6, 7 and 8 hr. The curves for SBA level vs time obtained in these experiments were used as references for determining blood sampling times in experiments with LUM001. Wherever possible, experimental design permitting, in experiments with test compound, each dog served as its own simultaneous control, and the mean 1 hr SBA value served as the reference to which all other mean values were compared.
LUM001 was administered at 0, 0.01, 0.05, 0.2 and 1 mg/kg, p.o. to dogs, n=6, 1 hr after feeding the standard experimental meal. Blood samples for SBA measurement were taken at −30, 0, 30, 60, 65, 70, 80, 90, 120 and 180 minutes from the time of feeding. Each dog served as its own control, and mean SBA levels were compared to the mean SBA level at 60 minutes.

[2] = tested on: fecal total bile acid (FBA); experiment: Fecal bile acids in monkeys, LUM001 for 14 days; type: in vivo, rhesus monkeys; settings: n=5
Excerpt: Fifteen experimentally naive male rhesus monkeys were utilized in this study. These animals were 2.1 to 4.2 years of age and weighed between 2.8 to 4.3 kg on the day prior to treatment initiation. HARLAN TEKLAD PRIMATE DIET® (Certified) was provided daily in amounts appropriate for the size and age of the animals. The diet was supplemented with fruit or vegetables 2-3 times weekly. Small bits of fruit, cereal or other treats were given to the animals following dose administration and periodically as part of facility's environmental enrichment program. Beginning prior to treatment initiation, only non-fat treats were provided to the animals (e.g., standard primate treats including peanut butter, sunflower seeds, baby food, nuts, pudding, and worms were specifically not permitted). Tap water was available ad libitum via an automatic watering device. Each animal was administered a dose of the LUM001 contained within gelatin capsules or the control article (empty gelatin capsules) once daily for 14 consecutive days. Fecal samples for determination of bile acid content were collected over approximately 24-hour periods beginning three days prior to treatment initiation and continuing until scheduled termination of dosing on Day 15. Samples were stored at −70 C until analysis.
Fecal samples were collected to determine the fecal total bile acid (FBA) concentration for each animal. Fecal collections were made during the final 72 hours of the study, for three consecutive 24-hour periods between 9:00 am and 10:00 am each day, prior to dosing and feeding. The separate daily collections from each dog were weighed, combined and homogenized with distilled water in a food processor to generate a homogeneous slurry. Homogenate (1.4 g) was extracted in a final concentration ratio of 2:0.6 of 50% (v/v) tertiary butanol/distilled water for 45 minutes in a 37° C. water bath and subjected to centrifugation for 13 minutes at 2000×g. The concentration of bile acids (mmolesgram homogenate) was determined using a 96-well enzymatic assay system. Aliquots of the fecal extracts (20 μl) were added to two sets of triplicate wells in a 96 well assay plate. A standardized sodium taurocholate solution and a standardized fecal extract solution (previously made from pooled samples and characterized for its bile acid concentration) were also analyzed for assay quality control. Aliquots of sodium taurocholate (20 μl), were serially diluted to generate a standard curve containing 30-540 nmoles/well. A 230 μl aliquot of reaction mixture containing 1M hydrazine hydrate, 0.1 M pyrophosphate and 0.46 mg/ml NAD was added to each well. […] Following 60 minutes of incubation at room temperature, the optical density at 340 nm was measured and the mean of each set of triplicate samples was calculated. […]

[3] = tested on: fecal excretion of [14C]taurocholic acid (TCA); experiment: Fecal excretion of [14C]taurocholic acid in hamsters, LUM002; type: in vivo, Syrian hamster; settings: oral gavage in two half doses, feces collected 24 hours, n=4 nonfasted hamsters per group
Description: To study the effect of LUM002 on fecal excretion of [^14C]taurocholic acid (TCA) in the Syrian hamster in vivo, [^14C]TCA was administered intraperitoneally 1 hour before dosing the test compound. Each animal was dosed with 1 μCi [^14C]TCA. LUM002 was dosed by oral gavage (5 mL/kg per administration) in either 5% (v/v) Solutol with 0.5% hydroxyethylcellulose (HEC) or 0.5% HEC alone. The first half of dose of test compound/vehicle was given 1 hour after [^14Cl]TCA injection, followed by the second half of dose 7 hours after the first dose of test compound/vehicle. Feces were collected for 24 hours after [^14Cl]TCA administration and aliquots from feces were combusted for determination of [^14Cl] excretion.
The ED200 (dose which doubles the fecal excretion of [^14Cl] label vs. control from dose response curve, including 95% Confidence interval) was calculated from a dose response curve.

SMILES | Time to significantly lowered SBA levels after dosing ([1]; 0.05 mg/kg orally 1 hour after feeding) [h] | Serum bile acids, mean ([1]; 0.05 mg/kg p.o. at 60 min, 120 min) | Serum bile acids, mean ([1]; 0.05 mg/kg p.o. at 60 min, −30 min) [µg/mL] | Serum bile acids, mean ([1]; 0.2 mg/kg p.o. at 60 min, 30 min) [µg/mL] | Onset time to significant SBA lowering ([1]; 1 mg/kg vs ED50 dose 0.2 mg/kg) | Threshold dose, dog SBA model ([1]; administered orally 1 hour after feeding) [mg/kg] | Fecal Total Bile Acids ([2]; 5 mg/kg once daily 14 days, Day 15) [µmol/day/kg] | Fecal Total Bile Acids ([2]; 5 mg/kg once daily, Prestudy) [µmol/day/kg] | Fecal Total Bile Acids ([2]; 50 mg/kg once daily 14 days, Day 15) [µmol/day/kg] | Fecal Total Bile Acids ([2]; 50 mg/kg once daily, Prestudy) [µmol/day/kg] | Fecal excretion of bile acids ([14C]TCA label) [3]
CCCCC1(CCCC)CS(=O)(=O)c2ccc(N(C)C)cc2[C@@H](c2ccc(OCc3ccc(C[N+]45CCN(CC4)CC5)cc3)cc2)[C@H]1O [LUM001] | 1 to 2 | 6.5* μg/ml | 1.4 | 9.1 | did not shorten the onset time | 0.05 | 23 | 6 | 63 | 6 | –
CCCC[C@]1(CC)CS(=O)(=O)c2ccc(N(C)C)cc2[C@@H](c2cccc(NC(=O)N[C@@H]3O[C@H](COS(=O)(=O)[O-])[C@@H](O)[C@H](OCc4ccccc4)[C@H]3O)c2)[C@H]1O.CCO.O.[K+] [LUM002, potassium((2R,3R,4S,5R,6R)-4-benzyloxy-6-{3-[3-((3S,4R,5R)-3-butyl-7-dimethylamino-3-ethyl-4-hydroxy-1,1-dioxo-2,3,4,5-tetrahydro-1H-benzo[b]thiepin-5-yl)-phenyl]-ureido}-3,5-dihydroxy-tetrahydro-pyran-2-ylmethyl)sulphate ethanolate, hydrate] | – | – | – | – | – | – | – | – | – | – | significantly increased fecal excretion of bile acids
